Paper PMC2801808 (Journal of medicinal chemistry, 2009)

Key:
[1] = target: T1, purified calpain 1 (Homo sapiens, UniProt P07384); experiment: Calpain 1 activity, sLLVY-AMC hydrolysis with purified calpain 1; assay type: biochemical
T1 sequence (P07384 1-714): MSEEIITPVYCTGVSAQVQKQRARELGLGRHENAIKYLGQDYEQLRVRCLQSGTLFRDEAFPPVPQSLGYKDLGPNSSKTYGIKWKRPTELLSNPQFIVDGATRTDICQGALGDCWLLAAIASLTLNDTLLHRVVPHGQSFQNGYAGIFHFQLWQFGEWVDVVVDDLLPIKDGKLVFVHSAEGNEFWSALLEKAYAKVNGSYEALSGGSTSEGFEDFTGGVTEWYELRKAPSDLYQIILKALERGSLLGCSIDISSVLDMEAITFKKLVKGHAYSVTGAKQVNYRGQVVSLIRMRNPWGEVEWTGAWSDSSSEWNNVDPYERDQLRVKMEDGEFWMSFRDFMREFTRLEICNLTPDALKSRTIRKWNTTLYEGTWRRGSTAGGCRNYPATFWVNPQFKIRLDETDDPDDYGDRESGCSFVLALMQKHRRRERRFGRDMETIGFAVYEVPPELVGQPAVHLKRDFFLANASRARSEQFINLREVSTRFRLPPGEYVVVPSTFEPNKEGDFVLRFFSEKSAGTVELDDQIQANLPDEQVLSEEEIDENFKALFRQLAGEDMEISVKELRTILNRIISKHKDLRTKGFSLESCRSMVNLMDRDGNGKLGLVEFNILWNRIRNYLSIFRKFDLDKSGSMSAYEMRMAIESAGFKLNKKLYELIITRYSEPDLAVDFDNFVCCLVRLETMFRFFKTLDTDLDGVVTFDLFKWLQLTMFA
T1 sequence (P04632 1-268 partner): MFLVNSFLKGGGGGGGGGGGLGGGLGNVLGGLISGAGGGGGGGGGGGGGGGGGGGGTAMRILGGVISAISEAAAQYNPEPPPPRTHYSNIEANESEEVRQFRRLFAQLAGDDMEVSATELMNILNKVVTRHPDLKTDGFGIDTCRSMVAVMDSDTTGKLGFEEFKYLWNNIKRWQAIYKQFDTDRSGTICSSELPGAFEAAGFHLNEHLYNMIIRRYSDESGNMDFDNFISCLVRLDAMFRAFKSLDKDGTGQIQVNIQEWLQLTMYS

[2] = tested on: NDUFV2 cleavage; experiment: Ca2+-induced cleavage of complex I subunit NDUFV2 in isolated mitochondria; parameters: species or system rabbit; details: 10 μM pretreatment, then Ca2+ 1 μM for 5 min
[3] = tested on: state 3 respiration of renal cortical mitochondria; experiment: Ca2+-induced attenuation of state 3 respiration in isolated mitochondria; parameters: species or system rabbit; details: 10 μM pretreatment, then Ca2+ 1 μM for 5 min
[4] = target: T2, calpain 2 (Sus scrofa, UniProt A6YNL5); experiment: Calpain 2 inhibition; assay type: biochemical, porcine
T2 sequence (A6YNL5 1-700): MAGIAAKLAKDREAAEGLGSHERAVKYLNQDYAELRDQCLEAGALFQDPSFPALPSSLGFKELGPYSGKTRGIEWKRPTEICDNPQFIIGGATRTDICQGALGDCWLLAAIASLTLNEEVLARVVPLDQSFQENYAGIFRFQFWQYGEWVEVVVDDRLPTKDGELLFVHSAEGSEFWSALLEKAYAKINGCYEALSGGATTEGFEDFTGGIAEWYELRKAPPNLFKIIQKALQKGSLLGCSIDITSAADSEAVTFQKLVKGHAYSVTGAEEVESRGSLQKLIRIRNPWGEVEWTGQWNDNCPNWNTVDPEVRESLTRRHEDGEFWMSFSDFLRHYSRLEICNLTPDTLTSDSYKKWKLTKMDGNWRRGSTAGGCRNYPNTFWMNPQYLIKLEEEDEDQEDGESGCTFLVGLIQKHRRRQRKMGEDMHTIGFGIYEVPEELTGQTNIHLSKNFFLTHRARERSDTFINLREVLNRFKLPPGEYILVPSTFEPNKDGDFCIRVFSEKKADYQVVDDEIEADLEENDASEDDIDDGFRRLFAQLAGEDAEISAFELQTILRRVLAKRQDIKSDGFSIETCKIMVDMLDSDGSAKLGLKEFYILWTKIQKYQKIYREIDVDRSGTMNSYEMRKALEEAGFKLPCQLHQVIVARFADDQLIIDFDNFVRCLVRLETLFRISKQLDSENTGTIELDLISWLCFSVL
T2 sequence (P04574 1-266 partner): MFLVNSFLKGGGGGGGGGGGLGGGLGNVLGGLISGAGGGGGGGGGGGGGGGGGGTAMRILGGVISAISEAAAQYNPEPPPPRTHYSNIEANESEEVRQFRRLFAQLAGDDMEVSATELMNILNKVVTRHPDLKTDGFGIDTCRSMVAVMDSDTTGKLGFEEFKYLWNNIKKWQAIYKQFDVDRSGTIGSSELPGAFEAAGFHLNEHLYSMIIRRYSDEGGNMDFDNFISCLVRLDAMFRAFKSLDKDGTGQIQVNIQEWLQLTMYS

[5] = no reference given; cited from earlier work
[6] = tested on: calpain; details: cited from earlier work

CCCC[C@@H](C=O)NC(=O)[C@H](CC(C)C)NC(=O)OCc1ccccc1 [Calpeptin, Z-Leu-Nle-CHO]
IC50 [1]: ~40 nM | Ca2+-induced cleavage of complex I subunit NDUFV2 [2]: blocked | Ca2+-induced attenuation of state 3 respiration [3]: blocked | IC50 [4]: ~60 nM

COc1ccc(S)cc1 [methoxythiophenol]
thiol pKa [5]: 6.8

CCS [ethanethiol]
thiol pKa [5]: 10.61

O=C(O)/C(S)=C/c1c[nH]c2ccc(F)cc12 [PD151746]
selectivity for calpain over cathepsin B [6]: 600 fold

O=C(O)/C(S)=C/c1ccc(I)cc1 [PD150606]
selectivity for calpain over cathepsin B [6]: 600 fold
